Test results reported in patent US7652034B2, “Enantiomer (-) of tenatoprazole and the therapeutic use thereof” (Sidem Pharma, priority 2004, dated 2010).
Read-outs that look alike come from different tables or passages of the source.

Assays:
[1] = recent studies; versus omeprazole, lansoprazole and other PPIs; cited from earlier work
[2] = doses of between 10 mg and 80 mg; previous studies; cited from earlier work
[3] = mean plasma half-life at doses between 10 mg and 80 mg; assay type: in vivo; settings: human, doses of between 10 mg and 80 mg
Procedure: In contrast, previous studies have shown that the racemic mixture has a mean plasma half-life of approximately 7 hours at this range of doses

[4] = tested on: cytochromes CYP3A4 and CYP2C19; assay: cytochromes that intervene in the metabolism of tenatoprazole; assay type: in vitro ADME
Source text: Further, it has been shown that different cytochromes intervene in the metabolism of tenatoprazole.

[5] = elimination half-life in slow metabolisers; assay type: in vivo, human; settings: slow metabolisers (deficient in CYP2C19 activity)
Procedure: In another study, it was assessed that the elimination half-life of the (−) isomer of tenatoprazole is approximately 4 times shorter than that of the (+) isomer in slow metabolisers (which are deficient in CYP2C 19 activity), as summarised in the following table: […]

[6] = tested on: ligature of the pylorus in the rat (gastric secretions); assay: model of ligature of the pylorus in the rat: volume and pH of gastric secretion; assay type: in vivo; settings: for pharmacological effect 10 h after treatment administration: pylorus ligature, as compared to the control group
Procedure: In vivo Studies in Rats: Assessment of Volume and pH of Gastric Secretion. Studies conducted by the applicant in vivo in a model of ligature of the pylorus in the rat have investigated the pharmacological effects of the (−) and (+) isomers of tenatoprazole. In this well established and validated model, animals are pre-treated at different time points (10, 16 and 20 h) before ligature of the pylorus, and the volume and pH of the gastric secretions are measured 4 h after the ligature.

[7] = analysis of plasma enantiomers in subjects by CYP2C19 genotype; assay type: in vivo, human; settings: for enantiomer in plasma (concentration): CYP2C19*1/*1 genotype, normal activity of cytochrome CYP2C19, rapid metabolisers; for enantiomer in plasma: CYP2C19*2/*2 genotype, weak activity of cytochrome CYP2C19, slow metabolisers
Source text: More particularly, the unexpected pharmacokinetic properties of the (−) enantiomer of tenatoprazole were discovered during an extensive program of pharmacokinetic and metabolism studies in vitro and in vivo.
The homozygous subjects have a very weak metabolic activity of the cytochrome CYP2C19 which is responsible for the metabolism of tenatoprazole. […] These subjects are qualified as “slow metabolisers”.

[8] = molecular target: CYP2C19 (Homo sapiens, UniProt P33261); assay: in vitro metabolism by cytochrome: maximal rate of metabolism (Vmax); assay type: in vitro ADME; settings: for Vmax (maximal rate of metabolism): in vitro
Source text: Vmax (−) is the value of Vmax of the (−) enantiomer of tenatoprazole.

[9] = tested on: intragastric pH in dogs; assay: antisecretory effect in dogs: intragastric pH over 24 h; assay type: in vivo; settings: for % of holding time for 24 hours pH > 3 / % of holding time for 24 hours pH > 4: 10 mg/kg/day
Procedure: In vivo Studies in Dogs: Assessment of the Antisecretory Effect. Studies conducted by the applicant in vivo in dogs have investigated the antisecretory effect of the (−) isomer of tenatoprazole and the (+) isomer, by measuring the intragastric pH after treatment administration for 6 days (10 mg/kg/day). The profile of intragastric pH during a 24-hour period was recorded on the first two days of administration, on the 6th day, and two days after treatment termination. These pH values were compared to those measured at baseline, prior to treatment administration. The results corresponding to the pH>3 and pH>4 holding time for 24 h, expressed in percent, are described below: […]

[10] = pharmacokinetic study in Caucasian subjects, acute and repeated administration (7 days) of tenatoprazole; assay type: in vivo, human
Procedure: In order to assess the difference in pharmacokinetic characteristics between the (−) enantiomer of the invention and the (+) enantiomer, a pharamcokinetic study was conducted.
Said study was carried out in Caucasian subjects, after an acute and repeated administration (7 days) of tenatoprazole. […] In contrast, it was observed that the evolution of the plasma concentration of the (+) isomer is not linear, and thus not predictive of the efficacy and the tolerability of the drug.

[11] = tested on: ulcerative lesions in rats; assay: onset of healing and normalisation of histological changes of ulcerative lesions in rats; assay type: in vivo
Source text: In vivo Studies in Rats: Assessment of the Onset of Healing and the Increase of Normalisation of Histological Changes of the Lesions. […] Thus, the effect observed with the (−) enantiomer of tenatoprazole appeared 1 day before those of the (+) enantiomer. […] These changes consisted in a reduction of the ultrastructural damage resulting in a complete morphological recovery of the oesophageal epithelium.

[12] = in vivo pharmacokinetic and metabolism study in dogs
[13] = after 7 days of treatment with tenatoprazole
[14] = 10 h after treatment administration, gastric secretions measured 4 h after the ligature

CYP2C19, sequence (P33261 whole entry): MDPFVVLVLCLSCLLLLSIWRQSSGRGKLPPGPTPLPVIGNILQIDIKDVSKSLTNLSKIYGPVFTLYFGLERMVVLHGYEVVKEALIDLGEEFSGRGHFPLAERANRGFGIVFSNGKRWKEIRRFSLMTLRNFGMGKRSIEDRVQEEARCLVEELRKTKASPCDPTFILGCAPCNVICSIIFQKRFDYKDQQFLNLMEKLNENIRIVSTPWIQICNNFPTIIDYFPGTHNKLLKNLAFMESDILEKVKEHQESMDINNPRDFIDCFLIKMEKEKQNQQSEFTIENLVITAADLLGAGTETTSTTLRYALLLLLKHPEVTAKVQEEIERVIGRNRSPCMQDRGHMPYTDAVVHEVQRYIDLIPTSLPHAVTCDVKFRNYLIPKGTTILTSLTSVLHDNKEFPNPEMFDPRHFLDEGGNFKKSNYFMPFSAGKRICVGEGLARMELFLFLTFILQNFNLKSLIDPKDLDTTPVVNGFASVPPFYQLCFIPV

COc1ccc2[nH]c([S+]([O-])Cc3ncc(C)c(OC)c3C)nc2n1 (racemic) [racemic mixture, 5-methoxy-2-[[(4-methoxy-3,5-dimethyl-2-pyridyl)methyl]sulfinyl]imidazo[4,5-b]pyridine]
half-life in plasma compared with the other PPIs [1]: approximately seven times longer | mean plasma half-life [2]: approximately 7 hours

COc1ccc2[nH]c([S+]([O-])Cc3ncc(C)c(OC)c3C)nc2n1 (single isomer, unassigned; (-)) [(−) isomer, (−)-5-methoxy-2-[[(4-methoxy-3,5-dimethyl-2-pyridyl)methyl]sulfinyl]imidazo[4,5-b]pyridine]
half-life [3]: 600 to 720 min | cytochromes via which the enantiomer is metabolised ([4]; human, cytochromes (CYP3A4, CYP2C19) in vitro): mainly metabolised via the cytochrome CYP3A4 | half-life ([5]; human, in vivo, read-out: T1/2 (elimination half-life) (converted)): 582 ± 54 min | elimination half-life shorter than that of the (+) isomer [5]: approximately 4 times | pharmacological effect 10 h after treatment administration [6]: remains pharmacologically active | enantiomer in plasma (concentration) ([7]; listed as (−) Enantiomer): Increased | enantiomer in plasma (concentration) ([7]; listed as (−) enantiomer): higher than that of the (+) enantiomer | metabolised more slowly than the (+) enantiomer ([8]; from Vmax values): approximately 7 times | Vmax (maximal rate of metabolism) [8]: 1.90 pmol/min per pmol of cytochrome | inhibition of gastric secretion ([9]; 10 mg/kg/day for 6 days): inhibit gastric secretion | time over which a significant effect is observed ([9]; 10 mg/kg/day for 6 days, compared to baseline): from the first day of administration, and is maintained until two days after treatment termination | % of holding time for 24 hours pH > 3 ([9]; 1st day of treatment): 73% | % of holding time for 24 hours pH > 4 ([9]; 1st day of treatment): 55% | % of holding time for 24 hours pH > 3 ([9]; 2nd day of treatment): 82% | % of holding time for 24 hours pH > 4 ([9]; 2nd day of treatment): 75% | % of holding time for 24 hours pH > 3 ([9]; 6th day of treatment): 93% | % of holding time for 24 hours pH > 4 ([9]; 6th day of treatment): 75% | AUC versus dose [10, 13]: linear with the dose | plasma concentration versus dose [10, 13]: linear with the dose | between-subject variability of pharmacokinetic parameters ([10]; compared to the (+) isomer): markedly lower | quality of healing (normalization of histological changes) [11]: significant increase | onset of healing of ulcerative lesions ([11]; as compared with the (+) enantiomer): significantly improved | appearance of the effect before that of the (+) enantiomer ([11]; healing of ulcerative lesions): 1 days | half-life in comparison with the (+) enantiomer [12]: significantly longer

COc1ccc2[nH]c([S@+]([O-])Cc3ncc(C)c(OC)c3C)nc2n1 (single isomer, unassigned) [(+) isomer, reference compound]
cytochromes via which the enantiomer is metabolised [4]: mainly the CYP2C19 and, to a lesser extent, by CYP3A4 | T1/2 (elimination half-life) [5]: 36.7 ± 4.5 h | Free acid (gastric acidity, change as compared to the control group) [6, 14]: −30% | pH (change as compared to the control group) [6, 14]: +30% | pharmacological effect 10 h after treatment administration [6]: no longer significant | enantiomer in plasma ([7]; listed as (+) Enantiomer): Increased | enantiomer in plasma ([7]; listed as (+) enantiomer): highly significant increase | Vmax (maximal rate of metabolism) [8]: 12.63 pmol/min per pmol of cytochrome | inhibition of gastric secretion ([9]; 10 mg/kg/day for 6 days): inhibit gastric secretion | plasma concentration versus dose [10, 13]: not linear
